Results from US20220193124A1, “Therapeutic Agent for Flavivirus Infection” (NEOPHARMA JAPAN CO., LTD., priority 2019, published 2022).
Read-outs that look alike come from different tables or passages of the source.

Assays:
[1] = system: dengue virus type-4 TVP360 strain (DENV4); experiment: Inhibitory effect on dengue virus type-4 replication in Vero cells; assay type: cell-based
Experimental: (§1) (1) One day before infection (Day 0), Vero cells were seeded in a 24-well plate and incubated at 37° C. and 5% CO2. A culture solution was MEM+10% fetal bovine serum+10 mM non-essential amino acid+1000 U/ml penicillin+100 μg/ml streptomycin. In an experiment in which the treatment with the agent was performed before infection, the agent to be examined was added to the culture solution at this point. In all experiments, 5-aminolevulinic acid hydrochloride was used as 5-ALA, sodium ferrous citrate (SFC) was used as an iron-containing compound, 300 μM ribavirin or lucidone of various concentrations was used as a positive control, and water was used as a negative control. […] After the viruses were adsorbed to the cells for 1 hour, the cells were rinsed with phosphate-buffered saline (PBS) to completely remove the inoculation liquid. A maintenance culture solution (MEM+1% fetal bovine serum+10 mM non-essential amino acid+1000 U/ml penicillin+100 μg/ml streptomycin+1 mM HEPES) in a volume of 1 ml was added to the plate, and the cells were cultured at 37° C. and 5% CO2. In an experiment in which the agent was added concurrently with infection, the agent to be examined was added to the maintenance culture solution at this point. (3) After 24 hours (Day 2), the culture solution was recovered from the plate and a fresh maintenance culture solution in a volume of 1 ml was added to the plate, and the cells were cultured at 37° C. and 5% CO2. In an experiment in which the agent was added after infection, the agent to be examined was added at predetermined time points after infection. The recovered culture solution was subjected to centrifugation at 3000 rpm for 5 minutes and the resulting supernatant was frozen and stored. (4) Thereafter, recovering and supplying of the culture solution was repeated every 24 hours. It is of note that the infection experiments were performed using 2 wells for all conditions.
(§2) (1) One day before the experiment, Vero cells were inoculated in a 24-well plate and incubated at 37° C. and 5% CO2. (2) Samples for titer measurement were thawed and ten-fold serial dilutions of the samples were prepared using the maintenance culture solution. (3) The culture solution was removed from the plate thus prepared, and the serial dilutions prepared in procedure (2) were each inoculated in a volume of 200 μl. After adsorption for 1 hour, the inoculation liquid was removed from the plate, and 1% methyl cellulose (MEM+1% methyl cellulose+1% fetal bovine serum) in a volume of 1 ml was added to the plate. […] The crystal violet solution was removed from the plate, and, after rinsing with water and drying, the number of plaques was counted. The viral titer in the culture solution was calculated based on the number of plaques. […]

[2] = system: Zika virus PRVABC59 strain (ZKV); experiment: Inhibitory effect on Zika virus replication in Vero cells; assay type: cell-based
Experimental: as §1, §2

[3] = system: dengue virus type-1 Mochizuki strain (DENV1); experiment: Inhibitory effect on dengue virus type-1 replication in Vero cells; assay type: cell-based
Experimental: as §1, with “(4) Thereafter, recovering and supplying of the culture solution was repeated every 24 hours. It is of note that the infection experiments were performed using 2 wells for all conditions.” left out
(1) One day before the experiment, Vero cells were inoculated in a 24-well plate and incubated at 37° C. and 5% CO2. […] The crystal violet solution was removed from the plate, and, after rinsing with water and drying, the number of plaques was counted. The viral titer in the culture solution was calculated based on the number of plaques. […]

[4] = system: Japanese encephalitis virus Nakayama strain (JEV Nakayama); experiment: Inhibitory effect on Japanese encephalitis virus replication in Vero cells (progeny virus titer by plaque assay); assay type: cell-based
Vero cells = experiment: MTT assay, cell toxicity in non-infected cells; assay type: cell-based
Experimental: (§3) (1) One day before the experiment, Vero cells were inoculated in a 96-well plate and incubated at 37° C. and 5% CO2. (2) Two-fold serial dilutions of 5-ALA were prepared (˜0.8 mM) using the maintenance culture solution (MEM+1% fetal bovine serum+10 mM non-essential amino acid+1000 U/ml penicillin+100 μg/ml streptomycin+1 mM HEPES). Water was used as a negative control. Two-fold serial dilutions of lucidone were also prepared (˜160 μM) in the same manner. (3) The culture solution was removed from the plate thus prepared, and the 5-ALA solution or the lucidone solution prepared in (2) was added to the plate in a volume of 100 μl per well. Three wells were used for each condition. (4) The old culture solution was removed from the plate every 24 hours, and the fresh 5-ALA solution or lucidone solution was added to the plate, followed by culturing. (5) The cells were cultured with the 5-ALA solution for 2, 4, or 7 days or with the lucidone solution for 7 days, and then rinsed with PBS twice. An MTT solution in a volume of 100 μl was added to the cells, and the cells were cultured at 37° C. and 5% CO2 for 3 hours. The MTT solution in use was prepared by dissolving thiazolyl blue tetrazolium bromide in a mixture containing equal volumes of 2×MEM and sterile water (10 mg/ml) and sterilizing the resulting mixture by filtration (prepared before use). (6) The culture solution was removed from the plate, and isopropyl alcohol in a volume of 100 μl was added to the plate, and the plate was subject to shaking at room temperature for about 5 minutes. (7) The absorbance at 570 nm was measured, and the relative absorbance was calculated as a percentage with respect to the absorbance in the well of 0 mM treatment.

[5] = MTT assay, cell toxicity in non-infected cells; assay type: cell-based; conditions: African green monkey, Vero cells (non-infected); non-infected cells; treatment for 7 days; read-out: CC50 (concentration at which cell toxicity is caused to 50% of cells)
Experimental: as §3

heme oxygenase-1 (HO-1) = conditions: Non-Patent Literatures 11, 13, 14, 15; cited from earlier work
flavivirus = experiment: Difference in concentrations for exhibiting cell toxicity and drug efficacy (therapeutic window)
Text: As one of action mechanisms of the anti-dengue virus activity of lucidone, an increase in HO-1 in cells is known.

[6] = system: dengue virus type-3 CH53489 strain (DENV3); experiment: Inhibitory effect on dengue virus type-3 replication in Vero cells; assay type: cell-based
Experimental: as §1, §2

dengue virus = conditions: Non-Patent Literatures 9 to 11; cited from earlier work
Zika virus = conditions: Non-Patent Literatures 7 and 8, cited from earlier work
[7] = system: Japanese encephalitis virus; conditions: Non-Patent Literature 6; cited from earlier work

## Cl.NCC(=O)CCC(=O)O [5-ALA, 5-aminolevulinic acid hydrochloride]
[1]; 0.2 mM, Day 8
  inhibitory effect on dengue virus type-4 replication on Day 8: decreased
[1]; 0.2 mM, treatment for 7 days after infection, FIG. 24
  inhibitory effect on dengue virus type-4: exhibited up to Day 7
[2]; 0.2 mM, after Day 9
  inhibitory effect after Day 9: decreased
[2]; 0.2 mM, treatment for 7 days after infection, FIG. 25
  inhibitory effect on Zika virus: exhibited up to Day 8
[2]; 5-ALA 0.2 mM vs ribavirin 300 μM, FIG. 25
  inhibitory effect on Zika virus replication compared with ribavirin: stronger than the effect of ribavirin (300 μM) on Day 5, Day 6, and Day 8
[3]; 0.2 mM, treatment for 7 days after infection, FIG. 22
  inhibitory effect on dengue virus type-1: exhibited up to Day 9
[3]; 5-ALA 0.2 mM vs ribavirin 300 μM, FIG. 22
  inhibitory effect on dengue virus type-1 replication compared with ribavirin: stronger than the effect of ribavirin (300 μM)
[3]; after removal of the agent
  inhibitory effect on dengue virus type-1 when the agent was removed from the culture solution: lost with the lapse of time
[4]; 0.05 mM, treatment for 7 days after infection, FIG. 7
  inhibitory effect on Japanese encephalitis virus replication: exhibited
[4]; 0.2 mM, treatment for 2 days after infection, FIG. 11
  inhibitory effect on Japanese encephalitis virus replication: exhibited
[4]; 0.2 mM, treatment for 4 days after infection, FIG. 10
  inhibitory effect on Japanese encephalitis virus replication: exhibited
[4]; 0.2 mM, treatment for 7 days after infection, FIG. 7
  inhibitory effect on Japanese encephalitis virus replication: exhibited
[4]; 5-ALA 0.2 mM vs lucidone 10 μM and 2.5 μM, 7 days after infection, FIG. 20
  inhibitory effect on Japanese encephalitis virus replication, 5-ALA compared with low dose lucidone: stronger inhibitory effect on the Japanese encephalitis virus replication than 10 μM and 2.5 μM of lucidone
[4]; 5-ALA 0.2 mM vs ribavirin 300 μM, 7 days after infection, FIG. 7
  inhibitory effect on Japanese encephalitis virus replication compared with ribavirin: stronger than the effect of ribavirin (300 μM)
[4]; 1 day treatment after infection, vs Example 4
  duration of inhibitory effect on Japanese encephalitis virus after removal, compared with dengue virus: lasted longer than in the case of the dengue virus
[4]; FIG. 7, FIG. 10, FIG. 11
  inhibitory effect on Japanese encephalitis virus replication, treatment for 4 days and 2 days compared with 7 days: less inhibitory effect
[4]; after removal of the agent
  inhibitory effect on Japanese encephalitis virus replication when the agent was removed from the culture solution: lost with the lapse of time
[4]; continuous treatment 7 days, compared with ribavirin, FIG. 7
  appearance of virus resistant to the agent: delays the appearance of the virus resistant to the agent more than ribavirin
[4]; treatment after infection for 1 day (Day 2), 0.05 mM to 1 mM, FIG. 5
  dose-dependent inhibitory effect on Japanese encephalitis virus replication: exhibited the dose-dependent inhibitory effect
Vero cells; non-infected cells, 5-ALA solution for 2, 4 or 7 days, up to 0.8 mM, FIGS. 12-14
  cell toxicity: observed in the non-infected cells in a dose-dependent manner
[5]
  CC50 at 7 days: > 800 µM
Heme oxygenase-1 (HO-1)
  heme oxygenase-1 (HO-1) in cells: induces expression of HO-1
flavivirus; higher than 0.8 mM not examined
  concentration required for causing the cell toxicity: at least 0.8 mM
flavivirus; summary of Examples
  concentration at which anti-flavivirus activity is confirmed: ≥ 0.2 mM
[6]; 0.2 mM, Day 8
  inhibitory effect on dengue virus type-3 replication on Day 8: decreased
[6]; 0.2 mM, treatment for 7 days after infection, FIG. 23
  inhibitory effect on dengue virus type-3: exhibited up to Day 7
[6]; 5-ALA 0.2 mM vs ribavirin 300 μM, FIG. 23
  inhibitory effect on dengue virus type-3 replication compared with ribavirin: stronger than the effect of ribavirin (300 μM)

## COC1=CC(=O)C(=C(O)/C=C/c2ccccc2)C1=O [lucidone, reference compound]
[4]; lucidone 40 μM vs 5-ALA 0.2 mM, 7 days after infection, FIG. 17
  inhibitory effect on Japanese encephalitis virus replication, lucidone compared with 5-ALA: stronger inhibitory effect on the Japanese encephalitis virus replication than 0.2 mM 5-ALA
Vero cells; cells not infected with the flavivirus, 40 μM, 7 days
  cell toxicity at 40 μM: did not cause the cell toxicity
Vero cells; non-infected cells, lucidone for 7 days, up to 160 μM, FIG. 15
  cell toxicity: observed in a dose-dependent manner
Vero cells; non-infected cells, treatment for 7 days, read-out: CC50 (concentration at which cell toxicity is caused to 50% of cells)
  CC50: > 60 µM
Heme oxygenase-1 (HO-1)
  heme oxygenase-1 (HO-1) in cells: increases HO-1 in cells
Dengue virus
  replication of dengue virus: suppress replication
flavivirus; summary of Examples
  concentration at which anti-flavivirus activity is confirmed: 0.04 mM
  concentration at which cell toxicity is confirmed: 40 µM

## O=C(Nc1ccc([N+](=O)[O-])cc1Cl)c1cc(Cl)ccc1O [niclosamide]
Zika virus
  replication of Zika virus: suppress replication

## CC(=O)Oc1ccccc1C(=O)Nc1ncc([N+](=O)[O-])s1 [nitazoxanide]
[7]
  replication of Japanese encephalitis virus: suppress replication

## NC(=O)c1ncn([C@@H]2O[C@H](CO)[C@@H](O)[C@H]2O)n1 [ribavirin, reference compound]
[1]; ribavirin 300 μM
  inhibitory effect on dengue virus type-4 replication under continuous treatment: reduction in the inhibitory effect
[1]; ribavirin 300 μM vs 5-ALA 0.2 mM, FIG. 24
  inhibitory effect on dengue virus type-4 replication, ribavirin compared with 5-ALA: stronger than the inhibitory effect on the dengue virus replication by treatment with 5-ALA (0.2 mM)
[2]; ribavirin 300 μM
  inhibitory effect on Zika virus replication under continuous treatment: reduction in the inhibitory effect
Dengue virus
  replication of dengue virus: suppress replication
[6]; ribavirin 300 μM, from Day 7
  inhibitory effect on dengue virus type-3 replication under continuous treatment: reduction in the inhibitory effect

## Hemin
Zika virus
  replication of Zika virus: suppress replication of Zika virus in vitro
Zika virus; listed as hemin
  replication of Zika virus: reduces replication of Zika virus in vitro
